Data as given in patent publication US20240246950A1, “Anilino-Pyrazole Derivatives, Compositions and Methods Thereof” (Ensem Therapeutics, priority 2022, published 2024).
Where two headings read alike, the source gives them in different places.

Experiments:
CDK2/CycA2 = CDK2/CycA2 (Homo sapiens, UniProt P24941); assay: In vitro kinase TR-FRET assay CDK2/CycA2; assay type: biochemical; settings: enzyme 3 nM, ATP 27 μM, read-out: CDK2 cyclinA2 activity assay: IC50
Summary of the method: (§1)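 Enzymes at 3 nM (CDK2/CycA2), 0.6 nM (CDK2/CycE1), 0.3 nM (CDK1/cyclinB), 0.6 nM (GSK3β) with ATP at 27, 82, 56, 7.6 μM respectively, 50 nM ULight-4E-BP1 peptide, HEPES pH7.5; 10-point 3-fold dilutions. 1 h reaction at room temperature; Eu-anti-phospho-4E-BP1 TR-FRET (665/615 nm) read; IC50 from dose-response curves.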

CDK1/cyclinB = CDK1/cyclinB (Homo sapiens, UniProt P06493); assay: In vitro kinase TR-FRET assay CDK1/cyclinB; assay type: biochemical; settings: enzyme 0.3 nM, ATP 56 μM
Chain of CDK1/cyclinB (P06493 whole entry): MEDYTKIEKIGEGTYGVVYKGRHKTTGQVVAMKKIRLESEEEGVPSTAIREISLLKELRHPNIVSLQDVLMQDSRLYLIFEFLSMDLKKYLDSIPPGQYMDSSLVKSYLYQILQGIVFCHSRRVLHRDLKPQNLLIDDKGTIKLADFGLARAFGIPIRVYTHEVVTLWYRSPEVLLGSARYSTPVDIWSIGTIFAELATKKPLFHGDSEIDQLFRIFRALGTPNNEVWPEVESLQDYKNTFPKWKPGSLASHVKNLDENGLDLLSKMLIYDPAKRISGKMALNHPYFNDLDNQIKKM
Chain of CDK1/cyclinB (P14635 whole entry partner): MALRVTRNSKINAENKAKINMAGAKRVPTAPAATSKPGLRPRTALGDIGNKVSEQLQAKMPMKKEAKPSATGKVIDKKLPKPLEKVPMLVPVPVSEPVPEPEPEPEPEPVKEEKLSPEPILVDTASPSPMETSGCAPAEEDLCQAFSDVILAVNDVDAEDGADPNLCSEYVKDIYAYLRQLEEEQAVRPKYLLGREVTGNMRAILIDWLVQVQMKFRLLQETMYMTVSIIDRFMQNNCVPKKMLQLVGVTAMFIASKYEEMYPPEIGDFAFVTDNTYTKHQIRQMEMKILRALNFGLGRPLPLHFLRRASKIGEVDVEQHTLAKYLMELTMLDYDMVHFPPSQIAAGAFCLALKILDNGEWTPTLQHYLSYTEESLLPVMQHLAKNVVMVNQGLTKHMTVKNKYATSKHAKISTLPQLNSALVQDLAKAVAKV
Summary of the method: as §1

GSK3β = GSK3β (Homo sapiens, UniProt P49841); assay: In vitro kinase TR-FRET assay GSK3β; assay type: biochemical; settings: enzyme 0.6 nM, ATP 7.6 μM
Chain of GSK3β (P49841 whole entry, species assumed): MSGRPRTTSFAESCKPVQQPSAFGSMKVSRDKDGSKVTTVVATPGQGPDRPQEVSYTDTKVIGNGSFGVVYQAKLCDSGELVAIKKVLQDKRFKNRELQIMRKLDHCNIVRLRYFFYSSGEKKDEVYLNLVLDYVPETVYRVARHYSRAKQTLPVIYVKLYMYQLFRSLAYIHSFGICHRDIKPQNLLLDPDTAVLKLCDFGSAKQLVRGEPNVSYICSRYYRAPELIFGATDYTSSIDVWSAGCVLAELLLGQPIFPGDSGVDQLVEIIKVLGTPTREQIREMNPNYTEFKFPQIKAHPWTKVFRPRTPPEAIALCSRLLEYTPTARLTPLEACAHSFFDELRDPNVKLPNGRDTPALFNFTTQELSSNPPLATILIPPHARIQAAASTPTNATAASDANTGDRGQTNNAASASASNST
Summary of the method: as §1

OVCAR3 = assay: Cell proliferation (CyQUANT) OVCAR3; assay type: cell-based; settings: OVCAR3, 7 days, read-out: Anti-proliferation assay: IC50 (nM) [Cell Line: OVCAR3]
Experimental: (§2) Cancer cell lines, namely, OVCAR3, TOV21G were seeded onto 96 well cell culture plates at a density of 2500, 1000 or 3000 cells/well, respectively and cultured overnight. Cells treated with test compounds at 3-fold dose titration for 7 days at maximum final DMSO concentration of 0.01%. The CyQUANT® Cell Proliferation Assay, a highly sensitive fluorescence-based method for quantifying cells and assessing cell proliferation and cytotoxicity was employed, following manufacturer's procedure (ThermnoFisher, Cataloge #C35012). Plates were scanned with a laser-based Acumen Cellistra instrument by TTP LabTech at Ex/Em 480/520 nm. % Inhibition is calculated based on DMSO control wells on the same plate (ie, DMSO wells have 100% growth and 0% growth inhibition).

TOV21G = assay: Cell proliferation (CyQUANT) TOV21G; assay type: cell-based; settings: 7 days, read-out: Anti-proliferation assay: IC50 (nM) [Cell Line: TOV21G]
Experimental: as §2

CDK2/CycE1 = CDK2/CycE1 (Homo sapiens, UniProt P24941); assay: In vitro kinase TR-FRET assay CDK2/CycE1; assay type: biochemical; settings: enzyme 0.6 nM, ATP 82 μM, read-out: CDK2 cyclinE1 activity assay: IC50
Summary of the method: as §1

Row | IC50 (CDK2/CycA2) | IC50 (CDK1/cyclinB) | IC50 (GSK3β) | IC50 (OVCAR3; Homo sapiens, OVCAR-3, 168 h) | IC50 (CDK2/CycE1) | IC50 (OVCAR3) | Molecule | IC50 (TOV21G; Homo sapiens, 168 h) | IC50 (TOV21G)
1 | < 50 nM | 50 to 500 nM | 50 to 500 nM | ≤ 500 nM | < 50 nM | – | CC(C)NC(=O)O[C@@H]1CC[C@H](c2cc(Nc3ccc(Cl)c4c3CCS4(=O)=O)n[nH]2)C1 [Example 64, (1R,3S)-3-(3-((7-chloro-1,1-dioxido-2,3-dihydrobenzo[b]thiophen-4-yl)amino)-1H-pyrazol-5-yl)cyclopentyl isopropylcarbamate] | ≥ 1000 nM | –
2 | < 50 nM | 50 to 500 nM | > 1000 nM | ≤ 500 nM | < 50 nM | – | CC(C)NC(=O)O[C@@H]1CC[C@H](c2cc(Nc3cccc4c3CS(=O)(=O)CC4O)[nH]n2)C1 (stereo partly drawn) [Example 62, (1R,3S)-3-(5-((4-hydroxy-2,2-dioxidoisothiochroman-8-yl)amino)-1H-pyrazol-3-yl)cyclopentyl isopropylcarbamate] | ≥ 1000 nM | –
3 | < 50 nM | 50 to 500 nM | > 1000 nM | ≤ 500 nM | < 50 nM | – | CC(C)NC(=O)O[C@@H]1CC[C@H](c2cc(Nc3ccc(F)c4c3CN(C)S4(=O)=O)n[nH]2)C1 [Example 67, (1R,3S)-3-{5-[(7-fluoro-2-methyl-1,1-dioxo-2,3-dihydro-1λ^6-benzo[2,1-d][1,2]thiazol-4-yl)amino]-2H-pyrazol-3-yl}cyclopentyl (prop-2-ylamino)methanoate] | ≥ 1000 nM | –
4 | < 50 nM | < 50 nM | 500 to 1000 nM | ≤ 500 nM | < 50 nM | – | CC(C)NC(=O)O[C@@H]1CC[C@H](c2cc(Nc3cccc4c3CCNS4(=O)=O)n[nH]2)C1 [Example 61, (1R,3S)-3-(3-((1,1-dioxido-3,4-dihydro-2H-benzo[e][1,2]thiazin-5-yl)amino)-1H-pyrazol-5-yl)cyclopentyl isopropylcarbamate] | ≤ 500 nM | –
5 | < 50 nM | 50 to 500 nM | > 1000 nM | ≤ 500 nM | < 50 nM | – | CC(C)NC(=O)O[C@@H]1CC[C@H](c2cc(Nc3cccc4c3CN(C)S4(=O)=O)n[nH]2)C1 [Example 47, (1R,3S)-3-(3-((2-methyl-1,1-dioxido-2,3-dihydrobenzo[d]isothiazol-4-yl)amino)-1H-pyrazol-5-yl)cyclopentyl isopropylcarbamate] | ≤ 500 nM | –
6 | < 50 nM | 50 to 500 nM | > 1000 nM | ≤ 500 nM | < 50 nM | – | CC(C)NC(=O)O[C@H]1CC[C@@H](c2cc(Nc3cccc4c3CCS4(=O)=O)n[nH]2)CC1 [Example 49, (1s,4s)-4-(3-((1,1-dioxido-2,3-dihydrobenzo[b]thiophen-4-yl)amino)-1H-pyrazol-5-yl)cyclohexyl isopropylcarbamate] | 500 to 1000 nM | –

The next lines start with the molecule.

Row | Molecule | IC50 (CDK2/CycA2) | IC50 (CDK1/cyclinB) | IC50 (GSK3β) | IC50 (OVCAR3; Homo sapiens, OVCAR-3, 168 h) | IC50 (CDK2/CycE1) | IC50 (OVCAR3) | IC50 (TOV21G; Homo sapiens, 168 h) | IC50 (TOV21G)
7 | CC(C)NC(=O)O[C@@H]1CC[C@H](c2cc(Nc3ccc4c(c3)CCS4(=O)=O)n[nH]2)C1 [Example 9, (1R,3S)-3-(3-((1,1-dioxido-2,3-dihydrobenzo[b]thiophen-5-yl)amino)-1H-pyrazol-5-yl)cyclopentyl isopropylcarbamate] | < 50 nM | 50 to 500 nM | 50 to 500 nM | ≤ 500 nM | < 50 nM | – | ≥ 1000 nM | –
8 | COC1CS(=O)(=O)c2ccc(Nc3cc([C@H]4CC[C@@H](OC(=O)NC(C)C)C4)n[nH]3)cc21 (stereo partly drawn) [Example 15, (1R,3S)-3-{5-[(3-methoxy-1,1-dioxo-2,3-dihydro-1λ^6-benzothiophen-5-yl)amino]-2H-pyrazol-3-yl}cyclopentyl (prop-2-ylamino)methanoate] | < 50 nM | 50 to 500 nM | 50 to 500 nM | ≤ 500 nM | < 50 nM | – | ≥ 1000 nM | –
9 | CC(C)NC(=O)O[C@@H]1CC[C@H](c2cc(Nc3cccc4c3CS(=O)(=O)C4)n[nH]2)C1 [Example 40, (1R,3S)-3-{5-[(2,2-dioxo-1,3-dihydro-2λ^6-benzo[c]thiophen-4-yl)amino]-2H-pyrazol-3-yl}cyclopentyl (prop-2-ylamino)methanoate] | < 50 nM | 50 to 500 nM | > 1000 nM | ≤ 500 nM | < 50 nM | – | ≥ 1000 nM | –
10 | CC(C)NC(=O)O[C@@H]1CC[C@H](c2cc(Nc3ccc4c(c3)CS(=O)(=O)C4)n[nH]2)C1 [Example 22, (1R,3S)-3-(3-((2,2-dioxido-1,3-dihydrobenzo[c]thiophen-5-yl)amino)-1H-pyrazol-5-yl)cyclopentyl isopropylcarbamate] | < 50 nM | < 50 nM | 500 to 1000 nM | ≤ 500 nM | < 50 nM | – | ≤ 500 nM | –
11 | CC(C)NC(=O)O[C@@H]1CC[C@H](c2cc(Nc3ccc4c(c3)oc(=O)n4C)n[nH]2)C1 [Example 34, (1R,3S)-3-{5-[(3-methyl-2-oxobenzo[d][1,3]oxazol-6-yl)amino]-2H-pyrazol-3-yl}cyclopentyl (prop-2-ylamino)methanoate] | < 50 nM | 50 to 500 nM | 500 to 1000 nM | 500 to 1000 nM | < 50 nM | – | ≥ 1000 nM | –
12 | CC(C)NC(=O)O[C@@H]1CC[C@H](c2cc(Nc3ccc4c(c3)OCCNS4(=O)=O)n[nH]2)C1 [Example 6, (1R,3S)-3-(3-((1,1-dioxido-3,4-dihydro-2H-benzo[b][1,4,5]oxathiazepin-7-yl)amino)-1H-pyrazol-5-yl)cyclopentyl isopropylcarbamate] | < 50 nM | 50 to 500 nM | 50 to 500 nM | ≤ 500 nM | < 50 nM | – | ≥ 1000 nM | –
13 | CC(C)NC(=O)O[C@@H]1CC[C@H](c2cc(Nc3ccc4c(c3)CS(=O)(=O)N4)n[nH]2)C1 [Example 45, (1R,3S)-3-{5-[(2,2-dioxo-1,3-dihydro-2λ6-benzo[c][1,2]thiazol-5-yl)amino]-2H-pyrazol-3-yl}cyclopentyl (prop-2-ylamino)methanoate] | < 50 nM | < 50 nM | > 1000 nM | ≥ 1000 nM | < 50 nM | – | ≥ 1000 nM | –
14 | CC(C)NC(=O)O[C@@H]1CC[C@H](c2cc(Nc3ccc4c(c3)CS(=O)(=O)N4C)n[nH]2)C1 [Example 42, (1R,3S)-3-{5-[(1-methyl-2,2-dioxo-1,3-dihydro-2%6-benzo[c][1,2]thiazol-5-yl)amino]-2H-pyrazol-3-yl}cyclopentyl (prop-2-ylamino)methanoate] | < 50 nM | 50 to 500 nM | 500 to 1000 nM | ≤ 500 nM | < 50 nM | – | ≤ 500 nM | –
15 | CC(C)NC(=O)O[C@H]1CC[C@@H](c2cc(Nc3ccc4c(c3)S(=O)(=O)NC4)n[nH]2)CC1 [Example 37, (1s,4s)-4-(3-((1,1-dioxido-2,3-dihydrobenzo[d]isothiazol-6-yl)amino)-1H-pyrazol-5-yl)cyclohexyl isopropylcarbamate] | < 50 nM | 50 to 500 nM | > 1000 nM | ≥ 1000 nM | < 50 nM | – | ≥ 1000 nM | –
16 | CC(C)NC(=O)OC1CCC(c2cc(Nc3ccc4c(c3)CN(C)S4(=O)=O)[nH]n2)C1 (racemic) [Example 23, 3-(5-((2-methyl-1,1-dioxido-2,3-dihydrobenzo[d]isothiazol-5-yl)amino)-1H-pyrazol-3-yl)cyclopentyl isopropylcarbamate] | < 50 nM | 50 to 500 nM | 50 to 500 nM | ≤ 500 nM | < 50 nM | – | ≥ 1000 nM | –
17 | CC(C)NC(=O)O[C@@H]1CC[C@H](c2cc(Nc3ccc4c(c3)N(C)CNS4(=O)=O)n[nH]2)C1 [Example 12, (1R,3S)-3-{3-[(4-methyl-1,1-dioxo-3,4-dihydro-2H-1λ^6,2,4-benzothiadiazin-6-yl)amino]-1H-pyrazol-5-yl}cyclopentyl N-(propan-2-yl)carbamate] | < 50 nM | < 50 nM | 50 to 500 nM | – | < 50 nM | ≤ 500 nM | – | ≥ 1000 nM
18 | CC(C)NC(=O)O[C@@H]1CC[C@H](c2cc(Nc3ccc4c(c3)CNC4=O)n[nH]2)C1 [Example 8, (1R,3S)-3-(3-((1-oxoisoindolin-5-yl)amino)-1H-pyrazol-5-yl)cyclopentyl isopropylcarbamate] | < 50 nM | 500 to 1000 nM | 500 to 1000 nM | ≥ 1000 nM | < 50 nM | – | ≥ 1000 nM | –
19 | (1s,4s)-4-{5-[(1,1-dioxo-2,3-dihydro-1λ^6-benzothiophen-5-yl)amino]-2H-pyrazol-3-yl}cyclohexyl (prop-2-ylamino)methanoate [Example 16] | < 50 nM | 50 to 500 nM | 500 to 1000 nM | – | < 50 nM | ≤ 500 nM | – | ≥ 1000 nM
